This note sets out measurements from patent US20160201045A1, “Endo-xylanase and Coding Gene and Use Thereof” (SHANGHAI INSTITUTES FOR BIOLOGICAL SCIENCES CHINESE ACADEMY …, priority 2013, published 2016).

One series relates to Xyl7. Briefly: Effect of different chemical agents and metal ions on the enzymatic activity of Xyl7. It counts as biochemical, microorganisms in termite gut. As to conditions: for Relative Activity (%) of Xyl7: Metal Ion or Chemical Agent 10 mM, enzyme without agent = 100%; for action on Xyl7 (in words) / increase for the activity of the enzyme: 10 mmol/L. As to the method: (§1) In a 100 μl reaction system, birch xylan was added to a final concentration of 1% (w/w), and Na2HPO4/NaH2PO4 buffer (pH7.0) was added to a final concentration of 100 mM. A suitable amount of enzyme solution diluted by the abovementioned buffer was added to the reaction system for reaction at 50[…] for 10 minutes. 100 μl DNS were added to stop the reaction. For the control, 100 μl DNS were firstly added to the above reaction system before adding the enzyme solution. The reaction mixtures were subjected to a boiled water bath for 5 minutes to develop color. Absorbance value at 540 nm was detected by a microplate reader. After subtracting the absorbance value of the control from that of the sample, the enzymatic activity unit (U) was calculated based on the standard curve.
Various compounds were added into the reaction system to a final concentration of 10 mmol/L. Enzymatic activity was tested according to the above standard enzymatic activity detection steps. The specific activity value of the enzyme without treated by any chemical agent or metal ion was used as a reference value and its relative activity was defined as 100%.

The nature of series [1]: Standard enzymatic activity detection (DNS method) on birch xylan. It counts as biochemical. As to conditions: standard steps: 1% birch xylan, pH7.0, 50, 10 minutes. The procedure: Enzymatic activity of the endo-1,4-β-xylanase was tested by a DNS method as follows:
10 g NaOH were weighed and dissolved in about 400 ml ddH2O. 10 g dinitrosalicylic acid, 2 g phenol, 0.5 g anhydrous sodium sulfite and 200 g potassium sodium tartrate tetrahydrate were weighed and dissolved in about 300 ml ddH2O. The two solutions were mixed, diluted to 1 liter and preserved in dark.
100 μl DNS were added into each of the above standard samples. The mixtures were subjected to boiled water bath for 5 minutes for developing color. Absorbance value at 540 nm was detected by a microplate reader. Standard sample 1 was a blank control. The absorbance value of the blank control was subtracted from that of each sample and then the standard curve was plotted.
as §1
Definition of enzymatic activity unit (U): 1U refers to the amount of enzyme required for catalytically hydrolyzing xylan to produce 1 μmol xylose.
Definition of specific activity unit: enzymatic activity of 1 mg protein (U/mg).
Various substrates with a final concentration of 2% (w/w) were treated by a suitable amount of enzymes at pH7.0 and 50[…] for 10 minutes. Enzymatic activity was tested according to the above standard enzymatic activity detection steps. […] No detectable enzymatic activity was found for the other test substrates. […]

A short description of series [2]: Detection on the optimum temperature. The class given is biochemical. As to conditions: compared with Xyl7. The procedure: as §1
Enzymatic activity was detected according the above standard enzymatic activity detection steps at pH 7.0 and a temperature in the range of 25-80° C. The optimum temperature of Xyl7 was in the range of 50-55° C., with an activity at 50[…] slightly higher than that at 55[…]. Thus, the specific activity value of the enzyme at 50[…] was used as a reference value and its relative activity was defined as 100%. The relative activity of the enzyme at each temperature was a ratio between the specific activity value of the enzyme at each temperature and the reference value.

For the molecule `[Al+3]` [Al^3+], the “Relative Activity (%) of Xyl7” value with Xyl7 is 77.68 ± 2.32%. Take `[Ba+2]` [Ba^2+]: the “Relative Activity (%) of Xyl7” value with Xyl7 came out at 90.71 ± 1.94%.

Regarding `[Ca+2]` [Ca^2+], in the series with Xyl7, the “Relative Activity (%) of Xyl7” value stood at 90.1 ± 12.82%.

As for `[Co+2]` [Co^2+], in the series with Xyl7, the “action on Xyl7 (in words)” value is listed as “could activate” and the “Relative Activity (%) of Xyl7” value is given as 109.14 ± 3.45%. The matching figures for `[Cu+2]` [Cu^2+]: “could activate” and 108.69 ± 2.99%.

For the molecule `O=C(O)CN(CCN(CC(=O)O)CC(=O)O)CC(=O)O` [EDTA], in the series with Xyl7, the “action on Xyl7 (in words)” value is reported as “obviously inhibited” and the “Relative Activity (%) of Xyl7” value turned out to be 88.65 ± 1.62%. Turning to `[Fe+2]` [Fe^2+], in the series with Xyl7, the “action on Xyl7 (in words)” value is “obviously inhibited” and the “Relative Activity (%) of Xyl7” value came to 25.33 ± 0.46%. For the same molecule, the “Relative Activity (%) of Xyl7” value in the series with Xyl7 (listed as Fe^3+) came out at 90.41 ± 3.36%. With `[K+]` [K^+], in the series with Xyl7, the “action on Xyl7 (in words)” value is “could activate”, the “increase for the activity of the enzyme” value is listed as “about 20%” and the “Relative Activity (%) of Xyl7” value amounted to 125.6 ± 11.98%. In the case of `[Mg+2]` [Mg^2+], in the series with Xyl7, the “action on Xyl7 (in words)” value is reported as “no obvious action” and the “Relative Activity (%) of Xyl7” value was 101.53 ± 3.02%. For the molecule `[Mn+2]` [Mn^2+], in the series with Xyl7, the “action on Xyl7 (in words)” value is reported as “could activate”, the “increase for the activity of the enzyme” value is on record as “about 20%” and the “Relative Activity (%) of Xyl7” value came to 125.73 ± 7.8%. Turning to `[Ni+2]` [Ni^2+], in the series with Xyl7, the “action on Xyl7 (in words)” value was “obviously inhibited” and the “Relative Activity (%) of Xyl7” value turned out to be 44.25 ± 4.98%. In the same order, the values of `[Zn+2]` [Zn^2+] are “obviously inhibited” and 64.88 ± 1.36%.

B1: Xyl7R2: fragment of Xyl7 consisting of amino acids 19-267 of SEQ ID NO:2 (protein)
chain: AQGPTWTTSTIQAYNGYDYELWNQNNAGTVSMKLTGDNGSGASAVGGTFTATWSNTQNVLFRSGKKWGSSSNQNHTQIGNMSINFAATWSSTDNVKMLGVYGWAYFTSANVPTKQENGTNASFSNQIEYYIIQDRGSYNPASGGTNAKKYGSATIDGIAYDFYVCDRINQPMLTGNGNFKQFFSVPQSASAHRTSGTISVSQHFNKWHELGMKMDGPLYEVAMKVESYTGSGSSNGSATVTKNLLTIGG
modifications: Intestinal tract metagenome of termite
As to B1, the “specific activity by the standard enzymatic activity detection steps of Example 3” value in series [1] was 8560 U/mg.

B2: Xyl7R3: fragment of Xyl7 consisting of amino acids 19-272 of SEQ ID NO:2 (protein)
chain: AQGPTWTTSTIQAYNGYDYELWNQNNAGTVSMKLTGDNGSGASAVGGTFTATWSNTQNVLFRSGKKWGSSSNQNHTQIGNMSINFAATWSSTDNVKMLGVYGWAYFTSANVPTKQENGTNASFSNQIEYYIIQDRGSYNPASGGTNAKKYGSATIDGIAYDFYVCDRINQPMLTGNGNFKQFFSVPQSASAHRTSGTISVSQHFNKWHELGMKMDGPLYEVAMKVESYTGSGSSNGSATVTKNLLTIGGTTPTP
modifications: Intestinal tract metagenome of termite
B2: the “specific activity by the standard enzymatic activity detection steps of Example 3” value in series [1] stood at 8775 U/mg. Further, the “optimum temperature and tolerance on temperature” value in series [2] is on record as “almost identical to those of Xyl7”.
